Laboratory results reported in patent CN117003659A, “一种可离子化脂质或其药学上可接受的盐、组合物和应用” (priority 2023, dated 2023).

Assays:
[1] = system: human umbilical vein endothelial cells (人脐静脉内皮细胞, HUVEC); assay: In vitro expression of VEGFa mRNA-LNP, ELISA of VEGFa protein (Example 6); assay type: cell-based; details: mRNA 1 μg, 24 h
[2] = system: HEK293T cells (HEK293T细胞); assay type: cell-based; details: RBD mRNA-LNP, mRNA 1 μg, 24 h, cell supernatant
[3] = system: female BALB/C mice (雌性BALB/C小鼠); assay: In vivo expression of Fluc mRNA-LNP, live fluorescence imaging (Example 7); set-up: species or system mouse; details: for fluorescence intensity (total luminous flux) / course of fluorescence intensity at 24 h (in words): mice, 20 μg Fluc mRNA, intramuscular; for fluorescence intensity (total luminous flux): 6 h, order of magnitude; for fluorescence intensity of expressed protein compared with U-102, U-104, U-106, U-108, U-110, U-112 (in words): mRNA-LNP, versus U-102, U-104, U-106, U-108, U-110, U-112

CCCCCCCCC(CCCCCC)C(=O)OCCCCCCN(CCCCO)CCCCCCOC(=O)C(CCCCCC)CCCCCCCC (stereo not shown) [ALC-0315, ((4-羟基丁基)氮杂二基)双(己烷-6,1-二基)双(2-己基癸酸酯), reference compound] was tested, and the VEGFa protein concentration [1] was 7.9 ng/mL, the RBD protein concentration [2] was 8.5 ng/mL and the “fluorescence intensity (total luminous flux)” value [3] was ~10^7 p/s. For the same compound, the “course of fluorescence intensity at 24 h (in words)” value [3] was “开始减弱”.
CCCCCCCCCCCOC(=O)CCCCCN(CCO)CCCCCCCC(=O)OC(CCCCCCCC)CCCCCCCC [SM-102, 8-[(2-羟乙基)[6-氧代-6-(十一烷基氧基)己基]氨基]辛酸1-辛基壬基酯, reference compound] was tested, and the VEGFa protein concentration [1] was 11.3 ng/mL, the RBD protein concentration [2] was 10.2 ng/mL and the “fluorescence intensity (total luminous flux)” value [3] was ~10^7 p/s. For the same compound, the “course of fluorescence intensity at 24 h (in words)” value [3] was “开始减弱”.
With CCCCCCCCC(CCCCCC)COC(=O)CCCCCN(CCCCCC(=O)OCC(CCCCCC)CCCCCCCC)CCCN(CCO)CCO (stereo not shown) [U-101, 双(2-己基癸基)-6,6'-((3-(双(2-羟乙基)氨基)丙基)氮杂二烷基)二己酸酯] the VEGFa protein concentration [1] was 52.8 ng/mL, the RBD protein concentration [2] was 50.6 ng/mL and the “fluorescence intensity of expressed protein compared with U-102, U-104, U-106, U-108, U-110, U-112 (in words)” value [3] was “更高一些”.
CCCCCCCCC(CCCCCC)COC(=O)CCCCCCN(CCCCCCC(=O)OCC(CCCCCC)CCCCCCCC)CCN(CCO)CCO (stereo not shown) [U-102, 双(2-己基癸基)-7,7'-((2-(双(2-羟乙基)氨基)乙基)氮杂二烷基)二庚酸酯] was tested, and the VEGFa protein concentration [1] was 48.7 ng/mL and the RBD protein concentration [2] was 49.3 ng/mL.
With CCCCCCCCCCCCOC(=O)CCCCCN(CCCCCC(=O)OCC(CCCCCC)CCCCCCCC)CCCN(CCO)CCO (stereo not shown) [U-103, O-2-己基癸基-O’-十二烷基-6,6'-((3-(双(2-羟乙基)氨基)丙基)氮杂二烷基)二己酸酯] the VEGFa protein concentration [1] was 49.6 ng/mL, the RBD protein concentration [2] was 49.6 ng/mL and the “fluorescence intensity of expressed protein compared with U-102, U-104, U-106, U-108, U-110, U-112 (in words)” value [3] was “更高一些”.
CCCCCCCCCCCCOC(=O)CCCCCCN(CCCCCCC(=O)OCC(CCCCCC)CCCCCCCC)CCN(CCO)CCO (stereo not shown) [U-104, O-2-己基癸基-O’-十二烷基-6,6'-((2-(双(2-羟乙基)氨基)乙基)氮杂二烷基)二庚酸酯] showed a VEGFa protein concentration [1] of 47.9 ng/mL and an RBD protein concentration [2] of 48.7 ng/mL.
With CCCCCCCCC(CCCCCCCC)OC(=O)CCCCCN(CCCCCC(=O)OC(CCCCCCCC)CCCCCCCC)CCCN(CCO)CCO [U-105, 双(1-辛基壬基)-6,6'-((3-(双(2-羟乙基)氨基)丙基)氮杂二烷基)二己酸酯] the VEGFa protein concentration [1] was 48.3 ng/mL, the RBD protein concentration [2] was 48.4 ng/mL and the “fluorescence intensity of expressed protein compared with U-102, U-104, U-106, U-108, U-110, U-112 (in words)” value [3] was “更高一些”.
For CCCCCCCCC(CCCCCCCC)OC(=O)CCCCCCN(CCCCCCC(=O)OC(CCCCCCCC)CCCCCCCC)CCN(CCO)CCO [U-106, 双(1-辛基壬基)-7,7'-((2-(双(2-羟乙基)氨基)乙基)氮杂二烷基)二庚酸酯], the VEGFa protein concentration [1] was 45.5 ng/mL and the RBD protein concentration [2] was 47.8 ng/mL.
With CCCCCCCCCCCCOC(=O)CCCCCN(CCCCCC(=O)OC(CCCCCCCC)CCCCCCCC)CCCN(CCO)CCO [U-107, O-1-辛基壬基-O’-十二烷基-6,6'-((3-(双(2-羟乙基)氨基)丙基)氮杂二烷基)二己酸酯] the VEGFa protein concentration [1] was 47.7 ng/mL, the RBD protein concentration [2] was 47.6 ng/mL and the “fluorescence intensity of expressed protein compared with U-102, U-104, U-106, U-108, U-110, U-112 (in words)” value [3] was “更高一些”.
CCCCCCCCCCCCOC(=O)CCCCCCN(CCCCCCC(=O)OC(CCCCCCCC)CCCCCCCC)CCN(CCO)CCO [U-108, O-1-辛基壬基-O’-十二烷基-7,7'-((2-(双(2-羟乙基)氨基)乙基)氮杂二烷基)二庚酸酯] showed a VEGFa protein concentration [1] of 45.3 ng/mL and an RBD protein concentration [2] of 45.7 ng/mL.
With CCCCCCCC(CCCCCCC)OC(=O)CCCCCN(CCCCCC(=O)OC(CCCCCCC)CCCCCCC)CCCN(CCO)CCO [U-109, 双(1-庚基辛基)-6,6'-((3-(双(2-羟乙基)氨基)丙基)氮杂二烷基)二己酸酯] the VEGFa protein concentration [1] was 39.2 ng/mL, the RBD protein concentration [2] was 43.2 ng/mL and the “fluorescence intensity of expressed protein compared with U-102, U-104, U-106, U-108, U-110, U-112 (in words)” value [3] was “更高一些”.
Work on CCCCCCCC(CCCCCCC)OC(=O)CCCCCCN(CCCCCCC(=O)OC(CCCCCCC)CCCCCCC)CCN(CCO)CCO [U-110, 双(1-庚基辛基)-7,7'-((2-(双(2-羟乙基)氨基)乙基)氮杂二烷基)二庚酸酯] yielded a VEGFa protein concentration [1] of 36.8 ng/mL and an RBD protein concentration [2] of 41.6 ng/mL.
With CCCCCCCCCCCCOC(=O)CCCCCN(CCCCCC(=O)OC(CCCCCCC)CCCCCCC)CCCN(CCO)CCO [U-111, O-1-庚基辛基-O’-十二烷基-6,6'-((3-(双(2-羟乙基)氨基)丙基)氮杂二烷基)二己酸酯] the VEGFa protein concentration [1] was 41.7 ng/mL, the RBD protein concentration [2] was 44.3 ng/mL and the “fluorescence intensity of expressed protein compared with U-102, U-104, U-106, U-108, U-110, U-112 (in words)” value [3] was “更高一些”.
CCCCCCCCCCCCOC(=O)CCCCCCN(CCCCCCC(=O)OC(CCCCCCC)CCCCCCC)CCN(CCO)CCO [U-112, O-1-庚基辛基-O’-十二烷基-7,7'-((2-(双(2-羟乙基)氨基)乙基)氮杂二烷基)二庚酸酯] was tested, and the VEGFa protein concentration [1] was 36.1 ng/mL and the RBD protein concentration [2] was 42.8 ng/mL.
For CCCCCCCCC(CCCCCC)COC(=O)CCCCCN(CCCCCC(=O)OCC(CCCCCC)CCCCCCCC)CCN(CCO)CCO (stereo not shown) [UR-301, 双(2-己基癸基)-6,6'-((2-(双(2-羟乙基)氨基)乙基)氮杂二烷基)二己酸酯], the VEGFa protein concentration [1] was 4.8 ng/mL and the RBD protein concentration [2] was 6.8 ng/mL.
Compound CCCCCCCCC(CCCCCC)COC(=O)CCCCCCN(CCCCCCC(=O)OCC(CCCCCC)CCCCCCCC)CCCN(CCO)CCO (stereo not shown) [UR-302, 双(2-己基癸基)-7,7'-((3-(双(2-羟乙基)氨基)丙基)氮杂二烷基)二庚酸酯] has a VEGFa protein concentration [1] of 3.7 ng/mL and an RBD protein concentration [2] of 4.5 ng/mL.
For CCCCCCCCC(CCCCCC)COC(=O)CCCCCCCN(CCCCCCCC(=O)OCC(CCCCCC)CCCCCCCC)CCN(CCO)CCO (stereo not shown) [UR-303, 双(2-己基癸基)-8,8'-((2-(双(2-羟乙基)氨基)乙基)氮杂二烷基)二辛酸酯], the VEGFa protein concentration [1] was 6.2 ng/mL and the RBD protein concentration [2] was 6.4 ng/mL.
In the case of CCCCCCCCC(CCCCCC)COC(=O)CCCCN(CCCCC(=O)OCC(CCCCCC)CCCCCCCC)CCCN(CCO)CCO (stereo not shown) [UR-304, 双(2-己基癸基)-5,5'-((3-(双(2-羟乙基)氨基)丙基)氮杂二烷基)二戊酸酯], the VEGFa protein concentration [1] was 4.9 ng/mL and the RBD protein concentration [2] was 5.4 ng/mL.
